Consider eight compounds from US7696383B2 (Solvay Pharmaceuticals B.V., priority 2007, dated 2010).

Each structure is given as a SMILES string.

Series [1] concerns dopamine, noradrenaline and serotonine reuptake. Description: In vitro pharmacology, summary in words over binding and reuptake inhibition. As to the method: (§1) In vitro affinity for neurotransmitter reuptake sites were either obtained by CEREP (128, rue Danton, 92500 Rueil-Malmaison, France) or at Solvay Pharmaceuticals B. V. (C. J. van Houtenlaan 36, 1381 CP Weesp, The Netherlands), using well documented procedures. Measured were affinities for serotonin (Tatsumi, 1999), norepinephrine (Pacholczyk, 1991) and dopamine reuptake sites (Pristupa, 1994).
(§2) Subsequently, the synaptosomes were exposed to [^3H]-serotonin ([…] final concentration) for 10 min. [^3H]-Serotonine uptake was stopped by filtration with a harvester and the non-incorporated radioactivity was removed by extensive washing. Filter plates with synaptosomes were dehydrated, and the amount of [^3H]-serotonin present was determined by Betaplate liquid scintillation counting.
In vitro functional inhibition of [^3H]-norepinephrine reuptake: male rats (Wistar Hsd/Cpb: WU; 175-200 g) were decapitated, the hypothalamus was rapidly removed and a crude synaptosomal fraction was prepared. […] [^3H]-Norepinephrine uptake was stopped by filtration with a harvester and the non-incorporated radioactivity was removed by an extensive washing programme. The filterplates with synaptosomes were dehydrated and the amount of [^3H]-norepinephrine present was determined by Betaplate liquid scintillation counting. […]

Another series is described as follows: in vivo. The following applies: for Kp / half-life: in vivo. The procedure:
Proteins in 100 μl plasma were precipitated with acetonitrile, and 5 μl samples of the obtained solutions were analyzed. Complete brains were homogenized and centrifuged, and 10 μl samples of the supernatant were analyzed.
Liquid Chromatography-Tandem Mass Spectrometry (LC-MS/MS) was performed using a Sciex API4000 LC-MS/MS. Samples were quantified using extracted calibration samples, treated the same as the study samples, in the range of 1-5000 ng/ml and 5.0-5000 ng/brain for plasma and brain samples, respectively. Compound peak area was used for quantification. Calibration curves were fitted to the model y=A+Bx+Cx^2 (y is the peak area of the analyte, x is the nominal calibration level in ng/ml (plasma) or ng/g (brain), A is the intercept, B is the slope and C is the description of the curvature). 1/x^2 weighing was used. LC-MS/MS system performance was monitored using a reference solution injected at standard intervals. […] The Lower Limit Of Quantification (LLOQ) was established at 1.00 ng/ml and 5.00 ng/brain, for plasma and brain samples, respectively. Values below the LLOQ were given as best estimate. Reversed phase HPLC was performed using gradient elution by a Hypersil BDS C18 100×4.6 mm 3 μm analytical column, at 45° C. and with a flow of 1.00 ml/min: […]

The next series addresses dopamine reuptake sites (Homo sapiens, UniProt Q01959). Description: In vitro affinity for dopamine reuptake sites. In kind it is binding. The note with it: read-out: Dopamine binding pKi (converted).
From the text: as §1

The next series deals with T1, [3H]-serotonin reuptake (Rattus norvegicus, UniProt P31652).
T1 construct: the cerebral hemispheres were rapidly removed, and a P2-synaptosomal fraction was prepared; from tissue; host or cells: rat cerebral hemispheres, P2 synaptosomal fraction
T1 sequence (P31652 whole entry): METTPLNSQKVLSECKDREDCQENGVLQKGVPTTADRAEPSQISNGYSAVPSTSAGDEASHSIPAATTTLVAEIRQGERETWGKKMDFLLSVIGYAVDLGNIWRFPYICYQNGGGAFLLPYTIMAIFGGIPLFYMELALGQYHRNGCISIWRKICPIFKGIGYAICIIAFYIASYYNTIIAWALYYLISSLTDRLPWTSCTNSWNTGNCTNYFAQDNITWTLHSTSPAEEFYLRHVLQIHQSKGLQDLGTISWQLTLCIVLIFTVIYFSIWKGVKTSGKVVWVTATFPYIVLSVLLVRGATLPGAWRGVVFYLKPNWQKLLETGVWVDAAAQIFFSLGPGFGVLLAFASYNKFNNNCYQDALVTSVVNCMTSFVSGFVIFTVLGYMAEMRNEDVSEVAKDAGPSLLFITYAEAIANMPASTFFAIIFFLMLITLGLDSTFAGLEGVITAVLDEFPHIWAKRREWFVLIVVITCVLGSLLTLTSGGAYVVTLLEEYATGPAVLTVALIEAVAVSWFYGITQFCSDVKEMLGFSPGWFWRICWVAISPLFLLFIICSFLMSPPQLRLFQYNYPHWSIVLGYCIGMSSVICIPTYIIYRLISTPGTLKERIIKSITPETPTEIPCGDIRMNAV
Description: In vitro functional inhibition of [3H]-serotonin reuptake, cerebral hemisphere synaptosomes. Format: biochemical. The note with it: read-out: Serotonine inhibition pIC50 (converted). As to the method: as §2

In series [2] the target is norepinephrine reuptake sites (Homo sapiens, UniProt P23975). Description: In vitro affinity for norepinephrine reuptake sites. Format: binding. The note with it: read-out: Noradrenaline binding pKi (converted).
norepinephrine reuptake sites, sequence (P23975 whole entry): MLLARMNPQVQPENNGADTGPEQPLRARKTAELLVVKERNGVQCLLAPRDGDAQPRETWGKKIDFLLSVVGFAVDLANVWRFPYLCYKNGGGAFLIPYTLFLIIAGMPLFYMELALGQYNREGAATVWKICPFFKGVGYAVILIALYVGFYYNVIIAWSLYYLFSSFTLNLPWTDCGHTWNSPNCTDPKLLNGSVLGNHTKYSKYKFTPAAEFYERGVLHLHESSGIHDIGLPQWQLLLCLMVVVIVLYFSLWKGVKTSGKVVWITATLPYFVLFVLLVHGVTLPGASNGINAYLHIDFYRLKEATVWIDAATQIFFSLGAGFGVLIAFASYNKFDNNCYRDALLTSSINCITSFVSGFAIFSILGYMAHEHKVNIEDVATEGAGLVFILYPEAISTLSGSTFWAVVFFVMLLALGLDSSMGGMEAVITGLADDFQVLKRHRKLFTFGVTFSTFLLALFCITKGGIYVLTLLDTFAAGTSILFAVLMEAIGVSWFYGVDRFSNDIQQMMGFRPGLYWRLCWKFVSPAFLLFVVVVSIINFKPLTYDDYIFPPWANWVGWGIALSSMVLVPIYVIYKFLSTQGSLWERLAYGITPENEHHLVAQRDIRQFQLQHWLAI
Another series has as its target T2, [3H]-dopamine reuptake (Rattus norvegicus, UniProt P23977).
T2 construct: the striatum was rapidly removed and a crude synaptosomal fraction (P2) was prepared; from tissue; host or cells: rat striatum, crude P2 synaptosomal fraction
Description: In vitro functional inhibition of [3H]-dopamine reuptake, striatum synaptosomes. Format: biochemical. The following applies: read-out: Dopamine inhibition pIC50 (converted). As to the method: In vitro functional inhibition of [^3H]-dopamine reuptake: male rats (Wistar Hsd/Cpb: WU; 175-200 g) were decapitated; the striatum was rapidly removed and a crude synaptosomal fraction (P2) was prepared by homogenization and centrifugation. Synaptosomes were pre-incubated in absence or presence of the test compound for 15 min at 37° C., in a medium containing the monoamine oxidase inhibitor pargyline (7×10^−6 M) (Coyle, 1969). Subsequently, [^3H]-dopamine (2×10^−7 M final concentration) was added and incubation was continued for 10 min. [^3H]-dopamine uptake was stopped by filtration and the synaptosomes were washed four times with phosphate buffered saline. The amount of [^3H]-dopamine in the synaptosomes was determined by Betaplate liquid scintillation counting. […] Inhibition of DA uptake was performed in duplicate.

The target in another series is serotonin reuptake sites (Homo sapiens, UniProt P31645). Description: In vitro affinity for serotonin reuptake sites. The following applies: read-out: Serotonine binding pKi (converted). Format: binding.
serotonin reuptake sites, sequence (P31645 whole entry): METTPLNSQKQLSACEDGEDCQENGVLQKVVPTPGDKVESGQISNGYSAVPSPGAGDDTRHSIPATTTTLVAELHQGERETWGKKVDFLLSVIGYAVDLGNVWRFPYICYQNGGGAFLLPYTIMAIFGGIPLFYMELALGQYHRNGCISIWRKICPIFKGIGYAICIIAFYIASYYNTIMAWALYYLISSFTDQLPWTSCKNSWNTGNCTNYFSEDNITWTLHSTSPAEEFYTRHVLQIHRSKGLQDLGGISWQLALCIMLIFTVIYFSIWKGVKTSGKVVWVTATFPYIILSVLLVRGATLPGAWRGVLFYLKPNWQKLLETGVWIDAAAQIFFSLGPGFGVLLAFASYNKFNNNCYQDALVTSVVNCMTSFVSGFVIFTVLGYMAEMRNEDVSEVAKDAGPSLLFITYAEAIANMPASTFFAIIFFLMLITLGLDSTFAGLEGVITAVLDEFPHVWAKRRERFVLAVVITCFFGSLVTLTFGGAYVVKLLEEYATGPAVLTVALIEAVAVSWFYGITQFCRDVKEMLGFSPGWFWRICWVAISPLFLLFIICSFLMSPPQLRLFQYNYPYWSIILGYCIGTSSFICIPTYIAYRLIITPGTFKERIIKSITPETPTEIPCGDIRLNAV
Series [3] concerns the target T3, [3H]-norepinephrine reuptake (Rattus norvegicus, UniProt Q63380).
T3 construct: the hypothalamus was rapidly removed and a crude synaptosomal fraction was prepared; from tissue; host or cells: rat hypothalamus, crude synaptosomal fraction
Description: In vitro functional inhibition of [3H]-norepinephrine reuptake, hypothalamus synaptosomes. In kind it is biochemical. The following applies: read-out: Noradrenaline inhibition pIC50 (converted). As to the method: In vitro functional inhibition of [^3H]-norepinephrine reuptake: male rats (Wistar Hsd/Cpb: WU; 175-200 g) were decapitated, the hypothalamus was rapidly removed and a crude synaptosomal fraction was prepared. Synaptosomes were pre-incubated in absence or presence of the test compound for 10 min at 37° C., in a medium containing the MAO inhibitor pargyline (7 μM). Subsequently, the synaptosomes were exposed to [^3H]-norepinephrine ([…] final concentration) for 15 min. [^3H]-Norepinephrine uptake was stopped by filtration with a harvester and the non-incorporated radioactivity was removed by an extensive washing programme. The filterplates with synaptosomes were dehydrated and the amount of [^3H]-norepinephrine present was determined by Betaplate liquid scintillation counting. […] Test compounds, 10^−2 M dissolved in DMSO, were diluted in Krebs Ringer buffer to test concentrations of 10^−8-10^−5 M. Further experimental details were as described (Coyle, 1969).

Where [4] appears, read: male, NMRI, mouse, po, 10 mg/kg.
Setting [5] is: male, NMRI, mouse, plasma, iv, 1 mg/kg.
Setting [6] is: male, NMRI, mouse, plasma, po, 10 mg/kg.

T2 sequence (P23977 whole entry): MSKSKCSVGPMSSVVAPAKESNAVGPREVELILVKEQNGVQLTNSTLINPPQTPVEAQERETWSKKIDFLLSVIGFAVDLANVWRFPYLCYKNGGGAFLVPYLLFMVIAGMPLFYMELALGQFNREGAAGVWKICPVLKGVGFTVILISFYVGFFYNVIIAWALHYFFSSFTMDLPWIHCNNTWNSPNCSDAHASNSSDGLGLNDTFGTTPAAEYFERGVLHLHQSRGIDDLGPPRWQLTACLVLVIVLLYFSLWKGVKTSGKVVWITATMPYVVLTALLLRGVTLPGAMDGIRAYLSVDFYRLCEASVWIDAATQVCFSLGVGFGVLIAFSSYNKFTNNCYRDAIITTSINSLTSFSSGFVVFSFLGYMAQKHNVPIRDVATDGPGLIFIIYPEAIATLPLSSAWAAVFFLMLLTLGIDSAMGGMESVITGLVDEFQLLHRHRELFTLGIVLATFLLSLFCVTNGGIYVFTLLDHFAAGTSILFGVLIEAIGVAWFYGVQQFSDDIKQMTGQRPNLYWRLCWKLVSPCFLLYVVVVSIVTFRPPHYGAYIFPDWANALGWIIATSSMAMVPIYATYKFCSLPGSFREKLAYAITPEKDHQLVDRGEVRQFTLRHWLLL
T3 sequence (Q63380 1-617): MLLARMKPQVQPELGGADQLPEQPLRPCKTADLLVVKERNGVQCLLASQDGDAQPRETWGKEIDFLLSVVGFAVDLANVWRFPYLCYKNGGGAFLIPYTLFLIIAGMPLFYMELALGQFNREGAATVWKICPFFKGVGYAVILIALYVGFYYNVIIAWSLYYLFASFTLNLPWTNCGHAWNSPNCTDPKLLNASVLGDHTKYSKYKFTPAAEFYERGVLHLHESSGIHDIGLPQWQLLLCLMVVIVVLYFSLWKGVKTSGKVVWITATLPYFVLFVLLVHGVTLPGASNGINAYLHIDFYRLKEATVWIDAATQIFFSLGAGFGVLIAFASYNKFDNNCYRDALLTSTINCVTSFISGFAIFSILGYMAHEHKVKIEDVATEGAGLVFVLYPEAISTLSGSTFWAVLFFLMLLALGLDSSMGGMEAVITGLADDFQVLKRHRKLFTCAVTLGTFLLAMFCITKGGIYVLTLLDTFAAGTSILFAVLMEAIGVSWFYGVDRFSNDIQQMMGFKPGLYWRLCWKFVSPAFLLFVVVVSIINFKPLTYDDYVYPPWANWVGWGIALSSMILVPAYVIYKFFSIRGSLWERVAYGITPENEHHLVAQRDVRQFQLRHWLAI
dopamine reuptake sites, sequence (Q01959 whole entry): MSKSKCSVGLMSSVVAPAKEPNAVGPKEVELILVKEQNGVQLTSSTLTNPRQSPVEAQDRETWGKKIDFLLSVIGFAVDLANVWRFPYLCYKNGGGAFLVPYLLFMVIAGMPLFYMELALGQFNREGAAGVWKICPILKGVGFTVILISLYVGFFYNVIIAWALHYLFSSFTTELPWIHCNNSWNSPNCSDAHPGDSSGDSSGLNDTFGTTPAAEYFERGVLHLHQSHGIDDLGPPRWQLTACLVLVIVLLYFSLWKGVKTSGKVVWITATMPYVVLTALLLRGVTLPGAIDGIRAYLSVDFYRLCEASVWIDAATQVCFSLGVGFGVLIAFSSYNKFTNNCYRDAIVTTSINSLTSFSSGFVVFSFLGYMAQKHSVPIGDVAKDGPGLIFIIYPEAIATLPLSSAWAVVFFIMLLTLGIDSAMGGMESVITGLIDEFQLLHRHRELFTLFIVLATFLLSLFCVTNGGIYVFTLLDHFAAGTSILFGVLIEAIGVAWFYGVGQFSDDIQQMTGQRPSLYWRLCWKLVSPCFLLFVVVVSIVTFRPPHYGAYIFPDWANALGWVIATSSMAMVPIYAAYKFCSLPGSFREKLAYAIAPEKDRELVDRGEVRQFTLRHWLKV

In the case of `CN(C)CC(c1ccc(O)cc1)C1(O)CCCCC1` (racemic) [O-desmethylvenlafaxine, (R,S)-1-[2-(dimethylamino)-1-(4-hydroxyphenyl)ethyl]-cyclohexanol], the “In vitro activity, in words” value in series [1] was “equipotent with venlafaxine”.
`COc1ccc(C(CN(C)C)C2(O)CCCCC2)cc1` (racemic) [Venlafaxine, (R,S)-1-(2-(Dimethylamino)-1-(4-methoxyphenyl)ethyl)cyclohexanol, reference compound]: the “In vitro activity, in words” value in series [1] was “most potent as inhibitor of serotonine reuptake”. In the series “in vivo” (male, NMRI, mouse, iv, 1 mg/kg), the Kp was found to be 3.1 and the half-life is 48 min. In “in vivo” (setting [4]), the Kp amounted to 3.4 and the half-life is 54 min. For the same compound, in the series “in vivo” (setting [5]), the AUC is 194 ng·h/mL, the AUC(0-inf) was 195 ng·h/mL, the Cmax turned out to be 408 ng/mL and the Tmax came out at 0 min. For the same compound, in “in vivo” (setting [5]), the Vd was found to be 6.2 L/kg and the clearance stood at 85.6 mL/min/kg. The compound also yielded a bioavailability in the series “in vivo” (male, NMRI, mouse, plasma, oral, 10 mg/kg) of 48.7%. Also, in “in vivo” (setting [6]), the AUC was determined as 943 ng·h/mL, the AUC(0-inf) was 948 ng·h/mL, the Cmax was 630 ng/mL and the Tmax amounted to 12 min. In addition, in “in vivo” (mice, after administration of venlafaxine), the “N-oxide found in brain” value was “only traces”.
Regarding `COc1ccc([C@H](C[N+](C)(C)[O-])C2(O)CCCCC2)cc1` [(R)-venlafaxine-N-oxide, R-Venlafaxine N-oxide], the values for the Ki (at dopamine reuptake sites; in series [2]; at serotonin reuptake sites) were above 31.6 µM, above 31.6 µM and 7.94 µM, respectively. The figures for the IC50 in series [3H]-serotonin reuptake, in series [3H]-dopamine reuptake and in series [3] were 20 µM, above 31.6 µM and 39.8 µM, respectively.
Turning to `CN(C)C[C@@H](c1ccc(O)cc1)C1(O)CCCCC1` [(R)—O-desmethyl-venlafaxine, O-desmethyl-R-Venlafaxine, reference compound], the results for the IC50 in series [3H]-dopamine reuptake and in series [3] were 5.01 µM and 0.398 µM, respectively.
On to `C[N+](C)([O-])C[C@@H](c1ccc(O)cc1)C1(O)CCCCC1` [(R)—O-desmethyl-venlafaxine-N-oxide, O-Desmethyl-R-venlafaxine N-oxide], for which the Ki at dopamine reuptake sites is above 31.6 µM; in series [2], above 31.6 µM; on serotonin reuptake sites, 10 µM. For the same compound, the figures for the IC50 in series [3H]-serotonin reuptake, in series [3H]-dopamine reuptake and in series [3] were 39.8 µM, above 31.6 µM and above 31.6 µM, respectively.
On to `COc1ccc([C@@H](C[N+](C)(C)[O-])C2(O)CCCCC2)cc1` [(S)-venlafaxine-N-oxide, S-Venlafaxine N-oxide], for which the Ki at dopamine reuptake sites was above 31.6 µM; in series [2], above 31.6 µM; at serotonin reuptake sites, 6.31 µM. Moreover, the values for the IC50 in series [3H]-serotonin reuptake, in series [3H]-dopamine reuptake and in series [3] were 15.8 µM, above 31.6 µM and above 31.6 µM, respectively.
Consider `CN(C)C[C@H](c1ccc(O)cc1)C1(O)CCCCC1` [(S)—O-desmethyl-venlafaxine, O-desmethyl-S-Venlafaxine, reference compound], for which the IC50 in series [3H]-dopamine reuptake is 10 µM; in series [3] it was 0.398 µM.
Consider `C[N+](C)([O-])C[C@H](c1ccc(O)cc1)C1(O)CCCCC1` [(S)—O-desmethyl-venlafaxine-N-oxide, O-desmethyl-S-venlafaxine N-oxide], for which the results for the Ki (on dopamine reuptake sites; in series [2]; on serotonin reuptake sites) were above 31.6 µM, above 31.6 µM and 12.6 µM, respectively. Also, the IC50 in series [3H]-serotonin reuptake was 25.1 µM; in series [3H]-dopamine reuptake, above 31.6 µM; in series [3] it was above 31.6 µM.
